According to ChEMBL document CHEMBL4507279, “Data for DCP probe BI-9627” (2021):

Legend:
[1] = target: Inhibitor of nuclear factor kappa-B kinase subunit epsilon (Homo sapiens) (UniProt Q14164); details: Compound concentration 1000.0 nM
[2] = tested on: ALK tyrosine kinase receptor (Homo sapiens), Q9UM73 [L1196M]; details: Compound concentration 1000.0 nM
[3] = target: Receptor-interacting serine/threonine-protein kinase 1 (Homo sapiens) (UniProt Q13546); details: Compound concentration 1000.0 nM
Sequence of Receptor-interacting serine/threonine-protein kinase 1 (Homo sapiens) (Q13546 whole entry, the tested form may be a part): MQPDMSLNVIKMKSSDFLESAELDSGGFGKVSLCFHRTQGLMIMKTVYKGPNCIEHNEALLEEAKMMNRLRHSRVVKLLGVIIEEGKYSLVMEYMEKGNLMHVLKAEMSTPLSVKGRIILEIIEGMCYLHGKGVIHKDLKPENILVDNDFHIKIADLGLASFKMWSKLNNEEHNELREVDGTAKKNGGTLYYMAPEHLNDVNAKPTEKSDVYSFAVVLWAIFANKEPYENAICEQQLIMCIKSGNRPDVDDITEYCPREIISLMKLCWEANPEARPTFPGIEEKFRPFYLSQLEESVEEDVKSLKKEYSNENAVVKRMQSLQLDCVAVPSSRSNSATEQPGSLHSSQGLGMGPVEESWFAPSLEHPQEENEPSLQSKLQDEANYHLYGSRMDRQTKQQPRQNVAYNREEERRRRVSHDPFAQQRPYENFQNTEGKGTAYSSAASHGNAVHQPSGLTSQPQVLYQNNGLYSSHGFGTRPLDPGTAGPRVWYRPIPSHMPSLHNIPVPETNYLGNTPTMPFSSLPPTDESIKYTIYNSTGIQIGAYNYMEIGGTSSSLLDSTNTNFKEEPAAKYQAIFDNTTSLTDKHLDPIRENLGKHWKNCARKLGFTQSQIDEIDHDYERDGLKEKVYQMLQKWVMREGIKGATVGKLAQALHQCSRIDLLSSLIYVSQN

[4] = target: Ankyrin repeat and protein kinase domain-containing protein 1 (Homo sapiens) (UniProt Q8NFD2); details: Compound concentration 1000.0 nM
[5] = target: Calcium/calmodulin-dependent protein kinase type II subunit alpha (Homo sapiens) (UniProt Q9UQM7); details: Compound concentration 1000.0 nM
[6] = target: Casein kinase I isoform alpha (Homo sapiens) (UniProt P48729); details: Compound concentration 1000.0 nM
[7] = tested on: Receptor-type tyrosine-protein kinase FLT3 (Homo sapiens), P36888 [R834Q]; details: Compound concentration 1000.0 nM
[8] = target: Receptor tyrosine-protein kinase erbB-2 (Homo sapiens) (UniProt P04626); details: Compound concentration 1000.0 nM
[9] = target: Tyrosine-protein kinase receptor TYRO3 (Homo sapiens) (UniProt Q06418); details: Compound concentration 1000.0 nM
[10] = target: Cyclin-dependent kinase 4 (Homo sapiens) (UniProt P11802); details: Compound concentration 1000.0 nM
Sequence of Cyclin-dependent kinase 4 (Homo sapiens) (P11802 whole entry): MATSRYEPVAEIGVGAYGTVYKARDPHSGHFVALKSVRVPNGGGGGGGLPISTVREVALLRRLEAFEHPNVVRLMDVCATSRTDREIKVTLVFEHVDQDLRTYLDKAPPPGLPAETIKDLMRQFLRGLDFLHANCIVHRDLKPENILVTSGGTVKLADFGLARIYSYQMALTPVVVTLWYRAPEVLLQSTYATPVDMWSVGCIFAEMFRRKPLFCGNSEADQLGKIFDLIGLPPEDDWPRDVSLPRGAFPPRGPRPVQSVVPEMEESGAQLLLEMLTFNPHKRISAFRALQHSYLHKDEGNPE

[11] = target: Dual specificity mitogen-activated protein kinase kinase 1 (Homo sapiens) (UniProt Q02750); details: Compound concentration 1000.0 nM
[12] = target: Calcium/calmodulin-dependent protein kinase kinase 1 (Homo sapiens) (UniProt Q8N5S9); details: Compound concentration 1000.0 nM
[13] = target: T1, D(4) dopamine receptor (Homo sapiens) (UniProt P21917); details: Compound concentration 10.0 uM
T1 sequence (whole entry): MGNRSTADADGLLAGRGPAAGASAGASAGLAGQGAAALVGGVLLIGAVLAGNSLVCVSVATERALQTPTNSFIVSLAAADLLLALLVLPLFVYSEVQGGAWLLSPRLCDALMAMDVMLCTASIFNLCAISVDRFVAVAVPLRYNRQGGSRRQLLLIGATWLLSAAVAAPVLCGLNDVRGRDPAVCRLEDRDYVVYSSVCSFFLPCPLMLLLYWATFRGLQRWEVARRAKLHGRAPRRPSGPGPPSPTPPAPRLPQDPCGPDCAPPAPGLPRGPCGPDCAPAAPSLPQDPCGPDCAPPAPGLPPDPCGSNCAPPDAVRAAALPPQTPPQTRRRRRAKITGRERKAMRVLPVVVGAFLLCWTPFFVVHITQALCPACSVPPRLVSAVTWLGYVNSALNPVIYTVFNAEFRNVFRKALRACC

[14] = target: Ephrin type-A receptor 7 (Homo sapiens) (UniProt Q15375); details: Compound concentration 1000.0 nM
Sequence of Ephrin type-A receptor 7 (Homo sapiens) (Q15375 28-998 limits assumed): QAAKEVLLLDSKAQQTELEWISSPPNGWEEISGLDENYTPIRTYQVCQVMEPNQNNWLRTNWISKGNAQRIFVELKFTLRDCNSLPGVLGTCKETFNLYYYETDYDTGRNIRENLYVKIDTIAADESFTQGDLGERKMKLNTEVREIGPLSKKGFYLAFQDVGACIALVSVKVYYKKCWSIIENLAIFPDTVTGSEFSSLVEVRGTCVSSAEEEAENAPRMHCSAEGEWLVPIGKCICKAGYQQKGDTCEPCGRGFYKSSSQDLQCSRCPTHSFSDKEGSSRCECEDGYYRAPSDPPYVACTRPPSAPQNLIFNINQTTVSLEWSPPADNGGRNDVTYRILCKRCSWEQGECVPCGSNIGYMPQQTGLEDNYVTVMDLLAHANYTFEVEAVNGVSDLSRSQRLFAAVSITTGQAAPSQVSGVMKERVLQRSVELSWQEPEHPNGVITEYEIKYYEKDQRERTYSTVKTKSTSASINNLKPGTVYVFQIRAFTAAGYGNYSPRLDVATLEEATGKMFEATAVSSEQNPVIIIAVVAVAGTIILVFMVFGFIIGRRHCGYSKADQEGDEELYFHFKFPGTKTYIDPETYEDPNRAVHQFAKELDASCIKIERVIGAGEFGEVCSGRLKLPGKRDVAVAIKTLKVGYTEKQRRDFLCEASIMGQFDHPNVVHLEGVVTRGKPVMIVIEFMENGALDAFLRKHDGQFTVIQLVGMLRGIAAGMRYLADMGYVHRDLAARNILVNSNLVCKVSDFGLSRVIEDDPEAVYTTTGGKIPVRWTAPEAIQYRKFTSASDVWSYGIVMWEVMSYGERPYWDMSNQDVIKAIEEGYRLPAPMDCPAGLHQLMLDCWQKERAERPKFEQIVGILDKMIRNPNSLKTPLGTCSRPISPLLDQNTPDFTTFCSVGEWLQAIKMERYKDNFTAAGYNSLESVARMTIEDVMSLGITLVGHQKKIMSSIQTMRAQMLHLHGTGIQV

[15] = target: Bone morphogenetic protein receptor type-1B (Homo sapiens) (UniProt O00238); details: Compound concentration 1000.0 nM
[16] = target: Sodium-dependent dopamine transporter (Homo sapiens, UniProt Q01959); details: Compound concentration 10.0 uM
Sequence of Sodium-dependent dopamine transporter (Q01959 whole entry): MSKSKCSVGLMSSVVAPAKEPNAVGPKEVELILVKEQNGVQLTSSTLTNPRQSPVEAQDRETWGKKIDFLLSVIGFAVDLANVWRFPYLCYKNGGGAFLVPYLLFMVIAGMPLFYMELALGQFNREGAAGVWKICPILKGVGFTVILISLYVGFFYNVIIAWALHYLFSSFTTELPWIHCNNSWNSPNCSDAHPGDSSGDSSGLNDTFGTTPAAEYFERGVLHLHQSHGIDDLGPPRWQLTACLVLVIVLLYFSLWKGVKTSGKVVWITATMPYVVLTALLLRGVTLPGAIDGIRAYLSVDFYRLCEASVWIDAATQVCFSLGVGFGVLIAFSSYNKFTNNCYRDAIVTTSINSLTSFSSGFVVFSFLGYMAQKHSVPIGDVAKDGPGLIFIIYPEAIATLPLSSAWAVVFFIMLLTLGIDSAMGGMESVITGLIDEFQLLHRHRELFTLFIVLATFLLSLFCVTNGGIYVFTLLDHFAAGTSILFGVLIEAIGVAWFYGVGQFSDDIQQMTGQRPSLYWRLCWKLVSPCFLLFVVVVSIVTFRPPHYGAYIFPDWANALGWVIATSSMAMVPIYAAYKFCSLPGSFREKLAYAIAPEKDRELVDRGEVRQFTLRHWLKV

[17] = target: Receptor-interacting serine/threonine-protein kinase 2 (Homo sapiens) (UniProt O43353); details: Compound concentration 1000.0 nM
[18] = target: TGF-beta receptor type-1 (Homo sapiens) (UniProt P36897); details: Compound concentration 1000.0 nM
[19] = target: Phosphatidylinositol 5-phosphate 4-kinase type-2 gamma (Homo sapiens) (UniProt Q8TBX8); details: Compound concentration 1000.0 nM
[20] = target: Ephrin type-B receptor 6 (Homo sapiens) (UniProt O15197); details: Compound concentration 1000.0 nM
[21] = target: Casein kinase I isoform delta (Homo sapiens) (UniProt P48730); details: Compound concentration 1000.0 nM
[22] = target: Protein-tyrosine kinase 2-beta (Homo sapiens) (UniProt Q14289); details: Compound concentration 1000.0 nM
[23] = target: Wee1-like protein kinase (Homo sapiens) (UniProt P30291); details: Compound concentration 1000.0 nM
Sequence of Wee1-like protein kinase (Homo sapiens) (P30291 whole entry, looked up): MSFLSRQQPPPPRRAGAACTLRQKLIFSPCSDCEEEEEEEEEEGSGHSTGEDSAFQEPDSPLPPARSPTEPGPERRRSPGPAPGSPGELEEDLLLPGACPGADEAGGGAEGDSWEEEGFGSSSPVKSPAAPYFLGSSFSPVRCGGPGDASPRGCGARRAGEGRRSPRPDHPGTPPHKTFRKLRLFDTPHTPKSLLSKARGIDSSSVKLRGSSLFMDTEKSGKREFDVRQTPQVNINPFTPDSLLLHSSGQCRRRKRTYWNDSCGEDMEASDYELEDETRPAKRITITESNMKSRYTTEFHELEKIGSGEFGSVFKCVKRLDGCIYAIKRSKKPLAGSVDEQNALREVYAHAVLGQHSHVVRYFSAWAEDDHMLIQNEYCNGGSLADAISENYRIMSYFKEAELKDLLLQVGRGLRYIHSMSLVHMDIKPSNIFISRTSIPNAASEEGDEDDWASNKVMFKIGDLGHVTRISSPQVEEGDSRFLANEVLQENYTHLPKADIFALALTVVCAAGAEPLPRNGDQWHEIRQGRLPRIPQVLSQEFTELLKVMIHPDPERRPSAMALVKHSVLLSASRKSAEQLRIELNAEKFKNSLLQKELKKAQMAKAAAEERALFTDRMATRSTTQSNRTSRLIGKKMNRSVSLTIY

[24] = target: Mitogen-activated protein kinase 7 (Homo sapiens) (UniProt Q13164); details: Compound concentration 1000.0 nM
[25] = target: Serine/threonine-protein kinase DCLK1 (Homo sapiens) (UniProt O15075); details: Compound concentration 1000.0 nM
[26] = target: Death-associated protein kinase 3 (Homo sapiens) (UniProt O43293); details: Compound concentration 1000.0 nM
[27] = target: Serine/threonine-protein kinase PAK 4 (Homo sapiens) (UniProt O96013); details: Compound concentration 1000.0 nM
[28] = target: Cyclin-dependent kinase 4 (Homo sapiens) (UniProt P11802); details: Compound concentration 1000.0 nM; remark: listed apart in the source
[29] = target: Eukaryotic translation initiation factor 2-alpha kinase 1 (Homo sapiens) (UniProt Q9BQI3); details: Compound concentration 1000.0 nM
[30] = target: Dual specificity protein kinase TTK (Homo sapiens) (UniProt P33981); details: Compound concentration 1000.0 nM
[31] = target: Cyclin-dependent kinase 16 (Homo sapiens) (UniProt Q00536); details: Compound concentration 1000.0 nM
[32] = tested on: Phosphatidylinositol 4,5-bisphosphate 3-kinase catalytic subunit alpha isoform (Homo sapiens), P42336 [E542K]; details: Compound concentration 1000.0 nM
[33] = target: Cyclin-dependent kinase 8 (Homo sapiens) (UniProt P49336); details: Compound concentration 1000.0 nM
[34] = target: Leucine-rich repeat serine/threonine-protein kinase 2 (Homo sapiens) (UniProt Q5S007); details: Compound concentration 1000.0 nM
[35] = target: Phosphatidylinositol 4,5-bisphosphate 3-kinase catalytic subunit gamma isoform (Homo sapiens) (UniProt P48736); details: Compound concentration 1000.0 nM
[36] = target: Tyrosine-protein kinase ABL2 (Homo sapiens) (UniProt P42684); details: Compound concentration 1000.0 nM
[37] = target: Serine/threonine-protein kinase D3 (Homo sapiens) (UniProt O94806); details: Compound concentration 1000.0 nM
[38] = tested on: eIF-2-alpha kinase GCN2 (Homo sapiens), Q9P2K8 [S808G]; details: Compound concentration 1000.0 nM
Sequence of eIF-2-alpha kinase GCN2 (Homo sapiens), Q9P2K8 [S808G] (Q9P2K8 whole entry S808G): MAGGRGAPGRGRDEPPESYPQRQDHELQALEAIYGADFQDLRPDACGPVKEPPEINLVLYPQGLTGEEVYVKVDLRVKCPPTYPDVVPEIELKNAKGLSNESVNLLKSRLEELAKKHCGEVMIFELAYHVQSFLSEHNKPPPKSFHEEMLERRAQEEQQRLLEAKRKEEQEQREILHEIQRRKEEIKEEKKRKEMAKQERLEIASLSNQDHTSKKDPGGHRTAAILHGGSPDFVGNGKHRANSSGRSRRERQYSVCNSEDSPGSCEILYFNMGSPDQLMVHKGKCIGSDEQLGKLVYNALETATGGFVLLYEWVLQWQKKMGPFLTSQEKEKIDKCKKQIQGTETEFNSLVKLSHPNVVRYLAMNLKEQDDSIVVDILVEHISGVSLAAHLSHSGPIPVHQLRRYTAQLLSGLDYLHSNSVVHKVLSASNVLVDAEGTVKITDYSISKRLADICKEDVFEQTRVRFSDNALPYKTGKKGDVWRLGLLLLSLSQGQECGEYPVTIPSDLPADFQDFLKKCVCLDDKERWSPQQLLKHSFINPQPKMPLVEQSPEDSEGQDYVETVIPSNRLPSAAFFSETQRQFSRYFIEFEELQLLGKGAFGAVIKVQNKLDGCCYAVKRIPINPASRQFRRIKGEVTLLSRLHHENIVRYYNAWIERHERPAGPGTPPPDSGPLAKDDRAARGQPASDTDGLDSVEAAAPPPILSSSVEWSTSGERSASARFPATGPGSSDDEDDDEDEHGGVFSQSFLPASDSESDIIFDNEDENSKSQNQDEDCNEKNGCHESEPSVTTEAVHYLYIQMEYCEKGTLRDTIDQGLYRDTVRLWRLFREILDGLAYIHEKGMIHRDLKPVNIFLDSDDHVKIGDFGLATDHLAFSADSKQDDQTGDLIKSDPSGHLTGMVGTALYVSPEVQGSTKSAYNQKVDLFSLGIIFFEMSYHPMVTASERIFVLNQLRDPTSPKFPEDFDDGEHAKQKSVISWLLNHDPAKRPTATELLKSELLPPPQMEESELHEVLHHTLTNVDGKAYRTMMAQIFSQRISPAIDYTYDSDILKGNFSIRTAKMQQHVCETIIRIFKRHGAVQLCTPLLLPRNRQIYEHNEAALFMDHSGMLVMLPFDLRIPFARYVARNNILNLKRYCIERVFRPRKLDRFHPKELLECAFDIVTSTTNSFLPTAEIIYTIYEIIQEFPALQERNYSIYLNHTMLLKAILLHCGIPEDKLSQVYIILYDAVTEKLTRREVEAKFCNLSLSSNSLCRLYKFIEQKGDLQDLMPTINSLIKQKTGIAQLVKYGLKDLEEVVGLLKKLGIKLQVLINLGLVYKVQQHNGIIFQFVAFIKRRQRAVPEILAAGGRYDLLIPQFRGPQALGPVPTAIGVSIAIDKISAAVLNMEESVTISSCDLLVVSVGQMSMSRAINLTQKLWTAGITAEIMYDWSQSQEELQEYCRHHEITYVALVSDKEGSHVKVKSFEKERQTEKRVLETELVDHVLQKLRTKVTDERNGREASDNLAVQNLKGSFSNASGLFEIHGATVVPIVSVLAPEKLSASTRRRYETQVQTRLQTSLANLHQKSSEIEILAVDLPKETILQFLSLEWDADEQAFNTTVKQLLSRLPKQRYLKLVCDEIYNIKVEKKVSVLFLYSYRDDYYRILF

[39] = target: Macrophage-stimulating protein receptor (Homo sapiens) (UniProt Q04912); details: Compound concentration 1000.0 nM

Structure (SMILES)	residual activity [1] [%]	residual activity [2] [%]	residual activity [3] [%]	residual activity [4] [%]	residual activity [5] [%]	residual activity [6] [%]	residual activity [7] [%]	residual activity [8] [%]	residual activity [9] [%]	residual activity [10] [%]	residual activity [11] [%]	residual activity [12] [%]	inhibition [13] [%]	residual activity [14] [%]	residual activity [15] [%]	inhibition [16] [%]	residual activity [17] [%]	residual activity [18] [%]	residual activity [19] [%]	residual activity [20] [%]	other results
CC(=O)N1CCC(c2ccc(C(=O)NC3=NCCN3)cc2C(F)(F)F)CC1 [BI 0054]	71	70	100	100	94	76	100	100	89	100	100	100	-5.64	99	89	87.3	100	100	94	100	residual activity [21]: 100%; residual activity [22]: 100%; residual activity [23]: 100%; residual activity [24]: 89%; residual activity [25]: 89%; residual activity [26]: 84%; residual activity [27]: 100%; residual activity [28]: 94%; residual activity [29]: 83%; residual activity [30]: 100%; residual activity [31]: 84%; residual activity [32]: 100%; residual activity [33]: 100%; residual activity [34]: 100%; residual activity [35]: 100%; residual activity [36]: 100%; residual activity [37]: 100%; residual activity [38]: 52%; residual activity [39]: 80%
CC(=O)N1CCC(c2ccc(C(=O)NC(=N)N)cc2C(F)(F)F)CC1 [BI 9627]	70	96	100	100	100	92	93	92	100	100	97	100	-5.7	100	100	77.9	100	100	100	100	residual activity [21]: 100%; residual activity [22]: 100%; residual activity [23]: 100%; residual activity [24]: 100%; residual activity [25]: 100%; residual activity [26]: 100%; residual activity [27]: 100%; residual activity [28]: 97%; residual activity [29]: 100%; residual activity [30]: 100%; residual activity [31]: 91%; residual activity [32]: 82%; residual activity [33]: 100%; residual activity [34]: 100%; residual activity [35]: 100%; residual activity [36]: 100%; residual activity [37]: 80%; residual activity [38]: 73%; residual activity [39]: 97%
